Results on twelve molecules are retold here after the OPERA property sets (Mansouri et al. 2018).

The structures appear in SMILES notation. Converted amounts (≈) assume the structure as drawn.

Details in one data set: not given
Usually solubility stands for the concentration that dissolves in the medium under given conditions. Higher therefore signals much dissolved substance. `O=C(NN=C1C=CC(=NO)C=C1)c1ccccc1` displayed a solubility of 20.7 µM (≈ 5 µg/mL). That is a double-digit micromolar value.
On the same count and under the same terms, the same measure for `O=c1[nH]cc(Br)c(=O)[nH]1`: 4270 µM (≈ 815 µg/mL); for `CCCN(CCC)c1c([N+](=O)[O-])cc(C)cc1[N+](=O)[O-]`: 1080 µM (≈ 304 µg/mL).
The same measure, in the same setting: the same measure for `CCOP(=O)(OCC)Oc1cc(C)[nH]n1`: 4270 µM (≈ 1000 µg/mL); for `C=C(C)C(=O)Nc1ccc(Cl)c(Cl)c1`: 36.9 µM (≈ 8.5 µg/mL).
Consider `COCCNC(=O)CSP(=S)(OC)OC`, for which the solubility was 73200 µM (≈ 20000 µg/mL).

Still in this data set, the particulars now being: 20 °C.
For `c1cc[n+]2c(c1)-c1cccc[n+]1CC2`, the solubility is 376 µM.

Still in this data set, the particulars now being: 21 °C.
Turning to `CNc1nc(NC(C)C)nc(OC)n1`, the solubility was found to be 17700 µM (≈ 3500 µg/mL).

The same data set, now with this note: 25 °C.
In the case of `CC(Cl)=CCl`, the solubility was 24300 µM (≈ 2700 µg/mL).
Same read-out and setting: the value for `C/C=C(/C)C(=O)O[C@H]1CC[C@@]2(C)[C@@H]3CC[C@H]4[C@]5(O)C[C@H](O)[C@@]6(O)[C@@H](CN7C[C@@H](C)CC[C@H]7[C@@]6(C)O)[C@]5(O)C[C@@]42O[C@]13O` was 963 µM (≈ 570 µg/mL); that for `Cc1nn(-c2ccccc2)c(C)c1N=O` was 184 µM (≈ 37 µg/mL); that for `CCOP(=O)(OC=CCl)OCC` was 46600 µM (≈ 10000 µg/mL).
